From patent US6677460B1, “Aromatic carboxylic acid bicyclic sulfur compounds” (Idemitsu Kosan Company, Limited, priority 1993, dated 2004)

Key:
[1] = tested on: large crabgrass; test: Upland soil treatment test (5); assay type: in vivo; conditions: dosage 100 g a.i./hectare, 20th day after treatment; note: ranges in brackets are in %
Method: (§1) 90 Parts by weight of the above carrier and 10 parts by weight of each of Compounds obtained in the above Preparation Examples were uniformly pulverized and mixed to obtain herbicides. Further, for Herbicide Comparative Examples, comparative herbicides were prepared by uniformly pulverizing and mixing 90 parts by weight of the above carrier and 10 parts by weight of each of the following Compounds x, y, A, B and C.
(§2) (5) Biological Test (Upland Soil Treatment Test, Herbicide Examples 10-26 and Comparative Example 9)
(§3) Seeds of weeds such as large crabgrass, barnyard grass, green foxtail, cocklebur, velvetleaf and slender amaranth and seeds of corn, wheat and barley were sown in 1/5,000-are Wagner pots filled with upland soil, and covered with upland soil. Then, a predetermined amount of the herbicide prepared in the above (1) was suspended in water and uniformly sprayed onto the soil surface. Thereafter, the plants were grown in the greenhouse, and on 20th day after the treatment, the herbicide was evaluated for herbicidal efficacy.
(§4) The dosage of each herbicide is indicated as an amount of the active ingredient per hectare. Further, air-dried weight were measured, and herbicidal efficacy and the pytotoxicity to corn are shown on the basis of the ratings described below.

[2] = tested on: slender amaranth; test: Upland soil treatment test (5); assay type: in vivo; conditions: dosage 100 g a.i./hectare, 20th day after treatment; note: ranges in brackets are in %
Method: as §1, §2, §3, §4

[3] = tested on: green foxtail; test: Upland soil treatment test (5); assay type: in vivo; conditions: dosage 100 g a.i./hectare, 20th day after treatment; note: ranges in brackets are in %
Method: as §1, §2, §3, §4

[4] = tested on: barnyard grass; test: Upland soil treatment test (5); assay type: in vivo; conditions: dosage 100 g a.i./hectare, 20th day after treatment; note: ranges in brackets are in %
Method: as §1, §2, §3, §4

[5] = tested on: cocklebur; test: Upland soil treatment test (5); assay type: in vivo; conditions: dosage 100 g a.i./hectare, 20th day after treatment; note: ranges in brackets are in %
Method: as §1, §2, §3, §4

[6] = tested on: velvetleaf; test: Upland soil treatment test (5); assay type: in vivo; conditions: dosage 100 g a.i./hectare, 20th day after treatment; note: ranges in brackets are in %
Method: as §1, §2, §3, §4

[7] = tested on: corn; test: Upland soil treatment test (5), phytotoxicity; assay type: in vivo; conditions: dosage 100 g a.i./hectare, 20th day after treatment
Method: as §1, §2, §3, §4

[8] = tested on: paddy rice; test: Submergence soil treatment test (4), phytotoxicity; assay type: in vivo; conditions: twenty days after treatment
Method: as §1
(§5) (4) Biological Test (Submergence Soil Treatment Test, Herbicide Examples 5˜9 and Comparative Examples 5˜8 and Reference Example 1 and 2)
(§6) 1/15,500-are porcelain pots were filled with paddy field soil, and seeds of barnyard grass and umbrella plant were sown in a surface layer of the soil, and paddy rice at the 2-leaf stage was transplanted. Then, the weeds were treated by uniformly spraying a diluted solution of a predetermined amount of the herbicide prepared in the above (1) onto the water surface at the time of germination of the weeds, and then the pots were allowed to stand in a greenhouse while water was properly sprayed. […] The dosage of each herbicide is shown as an amount of the active ingredient per 10 areas. Further, air-dried weights were measured, and the herbicidal efficacy and the phytotoxicity to the paddy rice were shown as follows.

[9] = tested on: umbrella plant; test: Submergence soil treatment test (4); assay type: in vivo; conditions: twenty days after treatment; note: ranges in brackets are in %
Method: as §1, §5, §6

[10] = tested on: barnyard grass; test: Submergence soil treatment test (4); assay type: in vivo; conditions: twenty days after treatment; note: ranges in brackets are in %
Method: as §1, §5, §6

SMILES	Herbicidal Efficacy large crabgrass [1]	Herbicidal Efficacy slender amaranth [2]	Herbicidal Efficacy green foxtail [3]	Herbicidal Efficacy barnyard grass [4]	Herbicidal Efficacy cocklebur [5]	Herbicidal Efficacy velvetleaf [6]	Phyto-toxicity to corn [7]	melting point	Phytotoxicity to paddy rice ([8]; dosage 1 g a.i./10 are)	Herbicidal Effficacy umbrella plant ([9]; dosage 1 g a.i./10 are)	Herbicidal Effficacy barnyard grass ([10]; dosage 1 g a.i./10 are)	Phytotoxicity to paddy rice ([8]; dosage 3 g a.i./10 are)	Herbicidal Effficacy umbrella plant ([9]; dosage 3 g a.i./10 are)	Herbicidal Effficacy barnyard grass ([10]; dosage 3 g a.i./10 are)	Phytotoxicity to paddy rice ([8]; dosage 10 g a.i./10 are)	Herbicidal Effficacy umbrella plant ([9]; dosage 10 g a.i./10 are)	Herbicidal Effficacy barnyard grass ([10]; dosage 10 g a.i./10 are)
CCn1ncc(C(=O)c2cc(C)c3c(c2C)C(C)(C)CCS3)c1OCC(C)=O [Compound 24]	5 (0)	5 (0)	2 (41-60)	5 (0)	5 (0)	5 (0)	0 (100)										
CCn1ncc(C(=O)c2cc(C)c3c(c2C)C(C)(C)CCS3(=O)=O)c1OC(C)=O [Compound 18, 4,4,5,8-tetramethyl-6-(1-ethyl-5-acetoxypyrazol-4-yl)carbonylthiochroman-1,1-dioxide]	5 (0)	5 (0)	4 (1-20)	5 (0)	5 (0)	5 (0)	0 (100)	187.7 to 191.4 °C									
CCn1ncc(C(=O)c2cc(C)c3c(c2C)C(C)(C)CCS3(=O)=O)c1OS(=O)(=O)c1ccc(C)cc1 [Compound 12]	5 (0)	5 (0)	1 (61-80)	5 (0)		5 (0)	0 (100)										
CCC(=O)Oc1c(C(=O)c2cc(C)c3c(c2C)C(C)(C)CCS3)cnn1CC [Compound 19]	5 (0)	5 (0)	2 (41-60)	5 (0)	5 (0)	5 (0)	0 (100)	178 to 179.6 °C									
CCCCCCCCS(=O)(=O)Oc1c(C(=O)c2cc(C)c3c(c2C)C(C)(C)CCS3(=O)=O)cnn1CC [Compound 11]	5 (0)	1 (61-80)	2 (41-60)	3 (21-40)	3 (21-40)	5 (0)	0 (100)		0 (100)	5 (0)	5 (0)						
CCCCS(=O)(=O)Oc1c(C(=O)c2cc(C)c3c(c2C)C(C)(C)CCS3(=O)=O)cnn1CC [Compound 10]	5 (0)	5 (0)	2 (41-60)	5 (0)	3 (21-40)	5 (0)	0 (100)		0 (100)	5 (0)	5 (0)						
CCn1ncc(C(=O)c2cc(C)c3c(c2C)C(C)(C)CCS3(=O)=O)c1OS(=O)(=O)c1ccccc1C [Compound 16]	5 (0)	5 (0)	5 (0)	5 (0)	5 (0)	5 (0)	0 (100)		0 (100)	2 (41-60)	5 (0)	0 (100)	5 (0)	5 (0)			
CCn1ncc(C(=O)c2cc(C)c3c(c2C)C(C)(C)CCS3)c1OC(=O)c1ccc(Cl)cc1Cl [Compound 23]								165.2 to 169 °C									
CCCCC(=O)Oc1c(C(=O)c2cc(C)c3c(c2C)C(C)(C)CCS3(=O)=O)cnn1CC [Compound 20]	5 (0)		2 (41-60)	3 (21-40)	5 (0)	5 (0)	0 (100)										
CCn1ncc(C(=O)c2cc(C)c3c(c2C)C(C)(C)CCS3)c1OS(=O)(=O)CC [Compound 8]	5 (0)		4 (1-20)	4 (1-20)	5 (0)	5 (0)	0 (100)	164.1 to 165.7 °C									
CCn1ncc(C(=O)c2cc(C)c3c(c2C)C(C)(C)CCS3(=O)=O)c1OS(=O)(=O)c1ccc([N+](=O)[O-])cc1 [Compound 13]	5 (0)	2 (41-60)	2 (41-60)	3 (21-40)	5 (0)	5 (0)	0 (100)										
CCn1ncc(C(=O)c2cc(C)c3c(c2C)C(C)(C)CCS3(=O)=O)c1OS(C)(=O)=O [Compound 7, 4,4,5,8-tetramethyl-6-(1-ethyl-5-methanesulfonyloxypyrazol-4-yl)carbonylthiochroman-1,1-dioxide]	5 (0)	5 (0)	4 (1-20)	5 (0)	5 (0)	5 (0)	0 (100)	202.2 to 203.4 °C									
CCn1ncc(C(=O)c2cc(C)c3c(c2C)C(C)(C)CCS3(=O)=O)c1OCC(=O)c1ccccc1 [Compound 25]	5 (0)	5 (0)	2 (41-60)	2 (41-60)	5 (0)	5 (0)	0 (100)										
CCn1ncc(C(=O)c2cc(Cl)c3c(c2Cl)C(C)(C)CCS3)c1O [Compound 3]								263.7 to 263.9 °C									
CCCS(=O)(=O)Oc1c(C(=O)c2cc(C)c3c(c2C)C(C)(C)CCS3(=O)=O)cnn1CC [Compound 9]	5 (0)	5 (0)	5 (0)	5 (0)	5 (0)	5 (0)	0 (100)										
CCCCCCC(=O)Oc1c(C(=O)c2cc(C)c3c(c2C)C(C)(C)CCS3(=O)=O)cnn1CC [Compound 21]	5 (0)	5 (0)	4 (1-20)	5 (0)	5 (0)	5 (0)	0 (100)										
CCn1ncc(C(=O)c2cc(C)c3c(c2C)C(C)(C)CCS3(=O)=O)c1OS(=O)(=O)c1ccc(OC)cc1 [Compound 14]	5 (0)	5 (0)	2 (41-60)	5 (0)	5 (0)	5 (0)	0 (100)		0 (100)	3 (21-40)	5 (0)						
CCn1ncc(C(=O)c2cc(C)c3c(c2C)C(=NOC)CCS3(=O)=O)c1O [Comp'd C, reference compound]												2 (90-94)	3 (21-40)	0 (81-100)	5	5 (0)	4 (1-20)
